Assay results reported in article PMC11207335, “In Vitro Metabolism and Transport Characteristics of Zastaprazan” (Pharmaceutics, 2024).
pIC50, pKi: −log10 of the molar value.

Assays:
[1] = Metabolic stability of JP-1366 in human hepatocytes; format: in vitro ADME; conditions: cryopreserved human hepatocytes
Method: (§1) According to the manufacturer’s protocol, cryopreserved human, dog, monkey, mouse, and rat hepatocytes were purified and recovered. […] The metabolic reaction in each sample well was quenched by adding 120 μL of ice-cold acetonitrile.
(§2) Log-transformed relative responses of JP-1366 were plotted against incubation time, thereby obtaining the elimination slope (k) from the linear regression analysis. […] (1) t1 /2(min)=ln2/kelimination slope (2) Clint(mL/min/kg)=ln2/t1/2×mL incubation/hepatocyte (10^6 cells)×B×10^6 cells/g liver×A g liver/kg BW (3) Clhep(mL/min/kg)=Qh×Clint/Qh+Clint (4) HER=Clhep/Qh
(§3) Here, A means the liver weight parameters and has values of 25.7, 32, 30, 87.5, and 40; B means the cell number parameters and has values of 139, 215, 120, 135, and 117; Qh represents hepatic blood flow and has values of 20.7, 30.9, 43.6, 90, and 55.2 mL/min/kg for humans, dogs, monkeys, mice, and rats, respectively. Hepatic extraction ratios (HERs) of ≤0.25, 0.25–0.75, and ≥0.75 were regarded as low, moderate, and high, respectively.

human hepatocytes = experiment: as above; format: in vitro ADME; conditions: human hepatocytes
Method: as §1, §2, §3

monkey hepatocytes = experiment: Metabolic stability of JP-1366 in monkey hepatocytes; format: in vitro ADME; conditions: monkey hepatocytes
Method: as §1, §2, §3

[2] = Metabolic stability of JP-1366 in mouse hepatocytes; format: in vitro ADME; conditions: cryopreserved mouse hepatocytes
Method: as §1, §2, §3

mouse hepatocytes = experiment: as above; format: in vitro ADME; conditions: mouse hepatocytes
Method: as §1, §2, §3

A3 = A3 (Homo sapiens, UniProt P0DMS8); experiment: BioPrint profiling, A3; conditions: BioPrint profiling (Eurofins CEREP)
Chain of A3 (P0DMS8 whole entry): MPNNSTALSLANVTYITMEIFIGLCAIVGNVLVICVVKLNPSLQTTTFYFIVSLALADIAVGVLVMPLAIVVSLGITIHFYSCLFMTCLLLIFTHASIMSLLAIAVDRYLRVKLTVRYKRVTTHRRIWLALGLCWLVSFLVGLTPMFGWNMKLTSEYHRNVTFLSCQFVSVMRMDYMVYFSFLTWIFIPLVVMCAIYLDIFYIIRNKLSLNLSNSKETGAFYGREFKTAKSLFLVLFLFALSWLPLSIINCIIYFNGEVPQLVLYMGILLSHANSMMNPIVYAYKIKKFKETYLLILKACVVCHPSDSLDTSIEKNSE
Description: However, the involvement of multiple metabolizing enzymes such as CYP1A2, CYP2C9/19, CYP1A2, and CYP2D6 with a minor contribution in the formation of M1, M6, M19, and M21 and the involvement of UGT1A1 and UGT2B7 in the formation of M15 from M1 and the formation of 23 metabolites might reduce the risk of drug–drug interaction potential mediated by a single metabolizing enzyme and a main metabolite. Additionally, it may reduce the intersubject variability caused by genetic variations in these metabolizing enzymes.

[3] = biological target: T1, human cDNA-expressed CYP2C8 (Homo sapiens, UniProt P10632); experiment: Enzyme kinetics of JP-1366 metabolism in cDNA-expressed CYP2C8; format: in vitro ADME
T1 construct: purchased Corning Life Sciences
T1 sequence (P10632 1-490): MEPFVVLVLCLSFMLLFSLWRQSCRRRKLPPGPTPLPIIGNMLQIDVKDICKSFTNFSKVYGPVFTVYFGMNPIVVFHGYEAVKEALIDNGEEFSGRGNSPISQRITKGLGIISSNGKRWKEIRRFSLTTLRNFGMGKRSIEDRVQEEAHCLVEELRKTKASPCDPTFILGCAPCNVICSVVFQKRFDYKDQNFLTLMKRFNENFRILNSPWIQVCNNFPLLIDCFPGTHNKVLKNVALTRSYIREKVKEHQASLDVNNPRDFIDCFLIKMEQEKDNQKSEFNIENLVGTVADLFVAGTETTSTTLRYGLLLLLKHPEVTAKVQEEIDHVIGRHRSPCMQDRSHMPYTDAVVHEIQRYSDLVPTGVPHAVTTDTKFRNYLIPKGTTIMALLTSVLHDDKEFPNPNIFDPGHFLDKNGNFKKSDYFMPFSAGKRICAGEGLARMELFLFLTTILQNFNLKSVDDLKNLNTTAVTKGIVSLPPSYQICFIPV
Method: The reaction was initiated by adding 5 μL of NADPH-generating system in triplicate, and the mixture was further incubated for 30 min at 37 °C in a shaking water bath.
The concentrations of the metabolites were quantitated, and their formation rates (pmol/mg protein/min) were calculated by dividing the amounts of metabolites formed from the incubation with human liver microsomes and human cDNA-expressed CYP or UGT enzymes by the incubation time.

Row | CLint scaled at 1 µM ([1]; human hepatocytes, scaled with physiological parameters) | half-life at 1 µM ([1]; human) | CLhep (human hepatocytes) | HER (human hepatocytes) | CLhep (monkey hepatocytes) | HER (monkey hepatocytes) | CLint scaled at 1 µM ([2]; mouse hepatocytes, scaled with physiological parameters) | half-life at 1 µM ([2]; mouse) | CLhep (mouse hepatocytes) | HER (mouse hepatocytes) | pIC50 (A3) | CLint ([3]; formation of the labelled metabolite from JP-1366, CYP2C8) | Contribution (%) ([3]; relative contribution of CYP2C8 to formation of the labelled metabolite) | pKi ([3]; substrate inhibition kinetics, formation of the labelled metabolite, CYP2C8) | SMILES
1 | 4.65 L/h/kg | 1.06 h | 0.978 L/h/kg | 0.79 | 1.87 L/h/kg | 0.72 | 27.7 L/h/kg | 0.987 h | 4.52 L/h/kg | 0.84 | 5.57 |  |  |  | Cc1cccc(C)c1CNc1cc(C(=O)N2CCC2)cn2c(C)c(C)nc12 [JP-1366, 1-azetidinyl(8-(((2,6-dimethylphenyl)methyl)amino)-2,3-dimethylimidazo(1,2-a)pyridin-6-yl)methanone]
2 |  |  |  |  |  |  |  |  |  |  |  | 0.031 μL/min/pmol CYP | 3.7% | 3.70 | Cc1cccc(CO)c1CNc1cc(C(=O)N2CCC2)cn2c(C)c(C)nc12 [M1, azetidin-1-yl(8-((2-(hydroxymethyl)-6-methyl-benzyl)amino)-2,3-dimethylimidazo[1,2-a]pyridin-6-yl)methanone]
